Experimental data published in the supplement of paper PMC11061612.

Key:
[1] = compound: CN(C)CCCOc1ccc(-c2ccc3ncc4c(c3c2)n(C2CCOCC2)c(=O)n4C)cn1 [AZD0156]; details: max 3 µM
Outline: (§1)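 After 24 hours at 37°C and 5% CO2 in 1536-well plates holding 7.5 μl of DMEM/F12 or RPMI with 10% FBS, cancer cell lines were dosed for 72 hours, with final DMSO typically 0.2%. Viability came from CellTiter-Glo 2.0 luminescence, scaled between the means of blank wells and DMSO wells. A non-linear mixed effects model fitted a two-parameter logistic curve to each dose response to give the single-agent IC50.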

[2] = compound: CC(C)n1c(=O)n(C)c2cnc3cc(F)c(-c4ccc(OCCCN5CCCCC5)nc4)cc3c21 [AZD1390]; details: max 0.3 µM
Outline: as §1

[3] = compound: COc1nnc2ccc(N3CCC(c4ccc(OCCN5CCN(C)C(=O)[C@H]5C)cc4)CC3)nn12 [AZD5153]; details: max 1 µM
Outline: as §1

[4] = compound: C[C@@H](Nc1cc(F)cc(F)c1)c1cc(C(=O)N(C)C)cc2c(=O)cc(N3CCOCC3)oc12 [AZD8186]; details: max 10 µM
Outline: as §1

[5] = compound: Nc1ccn([C@@H]2O[C@H](CO)[C@@H](O)C2(F)F)c(=O)n1 [Gemcitabine]; details: max 0.3 µM
Outline: as §1

[6] = compound: O=c1[nH]cc(F)c(=O)[nH]1 [5-Fluorouracil]; details: max 20 µM
Outline: as §1

[7] = compound: NC1(c2ccc(-c3nc4ccn5c(=O)[nH]nc5c4cc3-c3ccccc3)cc2)CCC1 [MK-2206]; details: max 10 µM
Outline: as §1

[8] = compound: Cc1cc2ncnn2cc1Nc1ncc2c(n1)n(C1CCOCC1)c(=O)n2C [AZD7648]; details: max 10 µM
Outline: as §1

[9] = compound: Cc1c2c(nn1C)CSCc1cc(n(C)n1)CSc1cc(c3ccccc3c1)OCCCc1c(C(=O)O)n(C)c3c-2c(Cl)ccc13 [AZD5991]; details: max 1 µM
Outline: as §1

[10] = compound: C[C@@H]1COCCN1C2=NC(=NC(=C2)C3(CC3)[S@](=N)(=O)C)C4=C5C=CNC5=NC=C4 [AZD6738]; details: max 10 µM
Outline: as §1

[11] = compound: CN(CC[C@H](CSC1=CC=CC=C1)NC2=C(C=C(C=C2)S(=O)(=O)NC(=O)C3=CC=C(C=C3)N4CCC(CC4)[C@H](C5=CC=CC=C5C6=CC=C(C=C6)Cl)O)S(=O)(=O)C(F)(F)F)CCO [AZD4320]; details: max 1 µM
Outline: as §1

[12] = compound: CCN(CCO)CCCOc1ccc2c(Nc3cc(CC(=O)Nc4cccc(F)c4)[nH]n3)ncnc2c1 [AZD2811]; details: max 1 µM
Outline: as §1

[13] = compound: C[C@@H](c1ccc2nccn2c1)n1nnc2ncc(-c3cnn(C)c3)nc21 [Savolitinib]; details: max 1 µM
Outline: as §1

[14] = compound: COc1cccc2c1C(=O)c1c(O)c3c(c(O)c1C2=O)C[C@@](O)(C(=O)CO)C[C@@H]3O[C@H]1C[C@H](N)[C@H](O)[C@H](C)O1 [Doxorubicin]; details: max 1 µM
Outline: as §1

[15] = compound: C1CN(CCC1(C(=O)N[C@@H](CCO)C2=CC=C(C=C2)Cl)N)C3=NC=NC4=C3C=CN4 [AZD5363]; details: max 10 µM
Outline: as §1

[16] = compound: COc1cc(Nc2ncc3c(n2)-c2ccc(Cl)cc2C(c2c(F)cccc2OC)=NC3)ccc1C(=O)O [Alisertib]; details: max 10 µM
Outline: as §1

[17] = compound: CC1=CN2[C@@H](C1)C=NC3=CC(=C(C=C3C2=O)OC)OCCCCCOC4=C(C=C5C(=C4)N=C[C@@H]6CC(=CN6C5=O)C)OC [SG3199]; details: max 0.001 µM
Outline: as §1

[18] = compound: CC(=O)O[C@H]1C(=O)[C@@]2(C)[C@H]([C@H](OC(=O)c3ccccc3)[C@]3(O)C[C@H](OC(=O)[C@H](O)[C@@H](NC(=O)c4ccccc4)c4ccccc4)C(C)=C1C3(C)C)[C@]1(OC(C)=O)CO[C@@H]1C[C@@H]2O [Paclitaxel]; details: max 3 µM
Outline: as §1

[19] = compound: CS(=O)(=O)CCNCc1ccc(-c2ccc3ncnc(Nc4ccc(OCc5cccc(F)c5)c(Cl)c4)c3c2)o1 [Lapatinib]; details: max 10 µM
Outline: as §1

[20] = compound: O=C(c1cc(Cc2n[nH]c(=O)c3ccccc23)ccc1F)N1CCN(C(=O)C2CC2)CC1 [Olaparib]; details: max 10 µM
Outline: as §1

[21] = compound: C=CCn1c(=O)c2cnc(Nc3ccc(N4CCN(C)CC4)cc3)nc2n1-c1cccc(C(C)(C)O)n1 [AZD1775]; details: max 3 µM
Outline: as §1

[22] = compound: N#Cc1cnc(Nc2cc(NC[C@H]3CNCCO3)c(C(F)(F)F)cn2)cn1 [SRA737]; details: max 10 µM
Outline: as §1

[23] = compound: O=C(Nc1ccc2[nH]nc(-c3ccncc3)c2c1)[C@@H]1CCN(CC(=O)N2CCN(c3ccc(-c4ncccn4)cc3)CC2)C1; details: max 5 µM
Outline: as §1

[24] = compound: Cc1nc(-c2cn3c(n2)-c2ccc(-c4cnn(C(C)(C)C(N)=O)c4)cc2OCC3)n(C(C)C)n1 [Taselisib]; details: max 10 µM
Outline: as §1

[25] = compound: Cn1cnc2c(F)c(Nc3ccc(Br)cc3Cl)c(C(=O)NOCCO)cc21 [Selumetinib]; details: max 10 µM
Outline: as §1

[26] = compound: CCc1c2c(nc3ccc(O)cc13)-c1cc3c(c(=O)n1C2)COC(=O)[C@]3(O)CC [SN-38]; details: max 0.3 µM
Outline: as §1

[27] = compound: C1CC(C1)(C(=O)[O-])C(=O)[O-].N.N.[Pt+2] [Carboplatin]; details: max 10 µM
Outline: as §1

[28] = compound: CC1=C(C(=CC=C1)Cl)NC(=O)C2=CN=C(S2)NC3=CC(=NC(=N3)C)N4CCN(CC4)CCO [Dasatinib]; details: max 2 µM
Outline: as §1

[29] = compound: COc1cccc(OCCCN)c1-c1cc(Nc2cnc(C#N)cn2)n[nH]1 [Prexasertib]; details: max 1 µM
Outline: as §1

[30] = compound: C[C@@H](Oc1cc(-c2cnn(C3CCNCC3)c2)cnc1N)c1c(Cl)ccc(F)c1Cl [Crizotinib]; details: max 10 µM
Outline: as §1

[31] = compound: CC(=O)Nc1cccc(-n2c(=O)n(C3CC3)c(=O)c3c(Nc4ccc(I)cc4F)n(C)c(=O)c(C)c32)c1 [Trametinib]; details: max 1 µM
Outline: as §1

[32] = compound: COc1cc([C@@H]2c3cc4c(cc3[C@@H](O[C@@H]3O[C@@H]5CO[C@@H](C)O[C@H]5[C@H](O)[C@H]3O)[C@H]3COC(=O)[C@H]23)OCO4)cc(OC)c1O [Etoposide]; details: max 10 µM
Outline: as §1

[33] = compound: CC1(C)CCC(CN2CCN(c3ccc(C(=O)NS(=O)(=O)c4ccc(NCC5CCOCC5)c([N+](=O)[O-])c4)c(Oc4cnc5[nH]ccc5c4)c3)CC2)=C(c2ccc(Cl)cc2)C1 [Venetoclax]; details: max 1 µM
Outline: as §1

[34] = compound: COc1cc2ncnc(Nc3ccc(F)c(Cl)c3)c2cc1OCCCN1CCOCC1 [Gefitinib]; details: max 10 µM
Outline: as §1

[35] = compound: CC(=O)c1c(C)c2cnc(Nc3ccc(N4CCNCC4)cn3)nc2n(C2CCCC2)c1=O [Palbociclib]; details: max 10 µM
Outline: as §1

## CGTH-W-1 (Thyroid Gland Carcinoma)
[1]
  IC50, cell viability 72 h: > 3000 nM
[2]
  IC50, cell viability 72 h: > 300 nM
[3]
  IC50, cell viability 72 h: > 1000 nM
[4]
  IC50, cell viability 72 h: > 10000 nM
[5]
  IC50, cell viability 72 h: 119 nM
[6]
  IC50, cell viability 72 h: > 20000 nM
[7]
  IC50, cell viability 72 h: > 10000 nM
[8]
  IC50, cell viability 72 h: > 10000 nM
[9]
  IC50, cell viability 72 h: > 1000 nM
[10]
  IC50, cell viability 72 h: > 10000 nM
[11]
  IC50, cell viability 72 h: > 1000 nM
[12]
  IC50, cell viability 72 h: > 1000 nM
[13]
  IC50, cell viability 72 h: > 1000 nM
[14]
  IC50, cell viability 72 h: 934 nM
[15]
  IC50, cell viability 72 h: > 10000 nM
[16]
  IC50, cell viability 72 h: > 10000 nM
[17]
  IC50, cell viability 72 h: > 1 nM
[18]
  IC50, cell viability 72 h: 2590 nM
[19]
  IC50, cell viability 72 h: > 10000 nM
[20]
  IC50, cell viability 72 h: > 10000 nM
[21]
  IC50, cell viability 72 h: > 3000 nM
[22]
  IC50, cell viability 72 h: > 10000 nM
[23]
  IC50, cell viability 72 h: > 5000 nM
[24]
  IC50, cell viability 72 h: 9160 nM
[25]
  IC50, cell viability 72 h: > 10000 nM
[26]
  IC50, cell viability 72 h: 30.8 nM
[27]
  IC50, cell viability 72 h: > 10000 nM
[28]
  IC50, cell viability 72 h: 544 nM
[29]
  IC50, cell viability 72 h: 129 nM
[30]
  IC50, cell viability 72 h: > 10000 nM
[31]
  IC50, cell viability 72 h: > 1000 nM
[32]
  IC50, cell viability 72 h: > 10000 nM
[33]
  IC50, cell viability 72 h: > 1000 nM
[34]
  IC50, cell viability 72 h: > 10000 nM
[35]
  IC50, cell viability 72 h: > 10000 nM

## WM1552C (Melanoma)
[1]
  IC50, cell viability 72 h: > 3000 nM
[2]
  IC50, cell viability 72 h: > 300 nM
[3]
  IC50, cell viability 72 h: > 1000 nM
[4]
  IC50, cell viability 72 h: > 10000 nM
[5]
  IC50, cell viability 72 h: 52.2 nM
[6]
  IC50, cell viability 72 h: > 20000 nM
[7]
  IC50, cell viability 72 h: > 10000 nM
[8]
  IC50, cell viability 72 h: > 10000 nM
[9]
  IC50, cell viability 72 h: 759 nM
[10]
  IC50, cell viability 72 h: > 10000 nM
[11]
  IC50, cell viability 72 h: > 1000 nM
[12]
  IC50, cell viability 72 h: > 1000 nM
[13]
  IC50, cell viability 72 h: > 1000 nM
[14]
  IC50, cell viability 72 h: > 1000 nM
[15]
  IC50, cell viability 72 h: > 10000 nM
[16]
  IC50, cell viability 72 h: 7480 nM
[17]
  IC50, cell viability 72 h: > 1 nM
[18]
  IC50, cell viability 72 h: 51.5 nM
[19]
  IC50, cell viability 72 h: > 10000 nM
[20]
  IC50, cell viability 72 h: > 10000 nM
[21]
  IC50, cell viability 72 h: 1760 nM
[22]
  IC50, cell viability 72 h: 6180 nM
[23]
  IC50, cell viability 72 h: > 5000 nM
[24]
  IC50, cell viability 72 h: 8740 nM
[25]
  IC50, cell viability 72 h: 7990 nM
[26]
  IC50, cell viability 72 h: 152 nM
[27]
  IC50, cell viability 72 h: > 10000 nM
[28]
  IC50, cell viability 72 h: 1810 nM
[29]
  IC50, cell viability 72 h: 34.4 nM
[30]
  IC50, cell viability 72 h: 6260 nM
[31]
  IC50, cell viability 72 h: 158 nM
[32]
  IC50, cell viability 72 h: > 10000 nM
[33]
  IC50, cell viability 72 h: > 1000 nM
[34]
  IC50, cell viability 72 h: > 10000 nM
[35]
  IC50, cell viability 72 h: > 10000 nM
